Source: publication PMC11864979, “First-in-class ultralong-target-residence-time p38α inhibitors as a mitosis-targeted therapy for colorectal cancer” (Nature Cancer, 2025)
Where two headings read alike, the source gives them in different places.

Columns and labels:
Test in all cases: selectivity profiling in a panel of 340 wild-type kinases (Reaction Biology Europe)
Format in all cases: binding
340 wild-type kinases [1] = target: T1, 340 wild-type kinases (Homo sapiens, UniProt P36507)
T1 construct: purchased Reaction Biology Europe

340 wild-type kinases [2] = target: T2, 340 wild-type kinases (Homo sapiens, UniProt Q9UEW8)
T2 construct: purchased Reaction Biology Europe

340 wild-type kinases [3] = target: T3, 340 wild-type kinases (Homo sapiens, UniProt P43250)
T3 construct: purchased Reaction Biology Europe

340 wild-type kinases [4] = target: T4, 340 wild-type kinases (Homo sapiens, UniProt P00519)
T4 construct: purchased Reaction Biology Europe

340 wild-type kinases [5] = target: T5, 340 wild-type kinases (Homo sapiens, UniProt Q05513); conditions: PKMzeta, read-out: residual activity
T5 construct: purchased Reaction Biology Europe

340 wild-type kinases [6] = target: T6, 340 wild-type kinases (Homo sapiens, UniProt Q9NYL2)
T6 construct: purchased Reaction Biology Europe

340 wild-type kinases [7] = target: T7, 340 wild-type kinases (Homo sapiens, UniProt P51451)
T7 construct: purchased Reaction Biology Europe

340 wild-type kinases [8] = target: T8, 340 wild-type kinases (Homo sapiens, UniProt O75914)
T8 construct: purchased Reaction Biology Europe

340 wild-type kinases [9] = target: T9, 340 wild-type kinases (Homo sapiens, UniProt P21709)
T9 construct: purchased Reaction Biology Europe
T9 sequence (P21709 26-976): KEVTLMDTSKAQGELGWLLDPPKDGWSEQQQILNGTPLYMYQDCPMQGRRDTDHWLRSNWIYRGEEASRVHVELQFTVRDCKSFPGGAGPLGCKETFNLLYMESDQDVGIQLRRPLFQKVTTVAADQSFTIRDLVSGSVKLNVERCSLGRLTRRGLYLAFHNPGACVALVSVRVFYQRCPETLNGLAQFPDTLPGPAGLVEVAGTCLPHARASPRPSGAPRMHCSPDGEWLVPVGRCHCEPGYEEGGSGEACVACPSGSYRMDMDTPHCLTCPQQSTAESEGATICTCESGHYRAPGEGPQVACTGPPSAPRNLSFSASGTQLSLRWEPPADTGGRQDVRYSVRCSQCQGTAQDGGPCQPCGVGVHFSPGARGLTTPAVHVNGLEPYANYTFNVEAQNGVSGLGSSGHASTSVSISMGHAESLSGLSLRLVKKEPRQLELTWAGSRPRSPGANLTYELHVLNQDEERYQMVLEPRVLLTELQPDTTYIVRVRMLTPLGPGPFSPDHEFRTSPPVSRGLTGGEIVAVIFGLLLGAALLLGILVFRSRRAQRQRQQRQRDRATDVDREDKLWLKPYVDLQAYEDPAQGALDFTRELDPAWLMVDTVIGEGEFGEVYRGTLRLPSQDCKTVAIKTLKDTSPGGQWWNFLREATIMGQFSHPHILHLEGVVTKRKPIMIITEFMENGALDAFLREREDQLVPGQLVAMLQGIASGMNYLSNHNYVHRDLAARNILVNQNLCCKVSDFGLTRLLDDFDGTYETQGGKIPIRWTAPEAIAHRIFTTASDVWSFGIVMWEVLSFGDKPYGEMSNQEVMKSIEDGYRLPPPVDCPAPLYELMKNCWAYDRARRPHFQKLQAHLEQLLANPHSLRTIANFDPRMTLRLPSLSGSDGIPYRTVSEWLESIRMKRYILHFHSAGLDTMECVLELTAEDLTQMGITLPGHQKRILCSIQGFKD

340 wild-type kinases [10] = target: T10, 340 wild-type kinases (Homo sapiens, UniProt Q6IQ55)
T10 construct: purchased Reaction Biology Europe

340 wild-type kinases [11] = target: T11, 340 wild-type kinases (Homo sapiens, UniProt P15735)
T11 construct: purchased Reaction Biology Europe
T11 sequence (P15735 1-406): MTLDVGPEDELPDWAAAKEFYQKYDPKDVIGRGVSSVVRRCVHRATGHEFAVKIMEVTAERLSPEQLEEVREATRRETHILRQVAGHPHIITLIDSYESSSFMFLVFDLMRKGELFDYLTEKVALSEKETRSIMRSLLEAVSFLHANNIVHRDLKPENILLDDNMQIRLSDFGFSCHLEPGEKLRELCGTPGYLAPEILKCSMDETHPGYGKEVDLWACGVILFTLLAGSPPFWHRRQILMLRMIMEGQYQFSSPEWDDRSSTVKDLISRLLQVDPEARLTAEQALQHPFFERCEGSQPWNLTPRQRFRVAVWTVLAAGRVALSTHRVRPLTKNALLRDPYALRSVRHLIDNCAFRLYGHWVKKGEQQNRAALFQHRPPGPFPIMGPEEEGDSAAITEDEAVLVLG

T10 sequence (Q6IQ55 whole entry): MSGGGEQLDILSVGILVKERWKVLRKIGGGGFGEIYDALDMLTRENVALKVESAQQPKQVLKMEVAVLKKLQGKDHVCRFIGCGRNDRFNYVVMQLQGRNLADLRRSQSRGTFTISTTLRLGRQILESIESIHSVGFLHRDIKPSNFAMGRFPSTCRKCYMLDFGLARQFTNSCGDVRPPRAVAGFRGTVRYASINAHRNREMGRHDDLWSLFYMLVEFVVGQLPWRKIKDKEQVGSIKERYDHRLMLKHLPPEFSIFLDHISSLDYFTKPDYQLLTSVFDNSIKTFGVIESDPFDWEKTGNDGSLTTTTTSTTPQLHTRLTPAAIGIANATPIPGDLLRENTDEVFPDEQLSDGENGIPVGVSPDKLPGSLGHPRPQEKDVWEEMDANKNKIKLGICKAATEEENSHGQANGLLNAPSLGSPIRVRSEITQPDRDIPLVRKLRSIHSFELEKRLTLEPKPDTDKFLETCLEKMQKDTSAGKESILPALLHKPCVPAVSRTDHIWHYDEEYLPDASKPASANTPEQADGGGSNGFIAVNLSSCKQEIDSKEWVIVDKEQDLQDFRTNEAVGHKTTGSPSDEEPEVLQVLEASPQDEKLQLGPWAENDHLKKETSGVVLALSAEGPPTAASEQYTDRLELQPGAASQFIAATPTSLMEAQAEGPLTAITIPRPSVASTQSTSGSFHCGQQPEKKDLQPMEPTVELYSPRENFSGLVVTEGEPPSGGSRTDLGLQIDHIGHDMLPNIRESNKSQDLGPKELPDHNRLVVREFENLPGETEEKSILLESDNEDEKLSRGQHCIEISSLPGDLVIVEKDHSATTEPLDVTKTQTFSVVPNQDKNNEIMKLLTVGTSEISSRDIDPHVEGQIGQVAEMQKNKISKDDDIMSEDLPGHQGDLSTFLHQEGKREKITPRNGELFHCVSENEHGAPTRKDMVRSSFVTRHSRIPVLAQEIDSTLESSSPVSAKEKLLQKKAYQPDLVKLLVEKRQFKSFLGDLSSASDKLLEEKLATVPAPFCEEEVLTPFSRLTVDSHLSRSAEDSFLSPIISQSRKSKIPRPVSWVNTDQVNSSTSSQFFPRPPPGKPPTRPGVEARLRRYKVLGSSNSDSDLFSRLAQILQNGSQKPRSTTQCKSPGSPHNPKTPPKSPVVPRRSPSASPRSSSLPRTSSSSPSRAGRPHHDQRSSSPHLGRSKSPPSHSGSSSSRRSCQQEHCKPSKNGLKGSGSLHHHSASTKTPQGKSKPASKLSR
T4 sequence (P00519 whole entry): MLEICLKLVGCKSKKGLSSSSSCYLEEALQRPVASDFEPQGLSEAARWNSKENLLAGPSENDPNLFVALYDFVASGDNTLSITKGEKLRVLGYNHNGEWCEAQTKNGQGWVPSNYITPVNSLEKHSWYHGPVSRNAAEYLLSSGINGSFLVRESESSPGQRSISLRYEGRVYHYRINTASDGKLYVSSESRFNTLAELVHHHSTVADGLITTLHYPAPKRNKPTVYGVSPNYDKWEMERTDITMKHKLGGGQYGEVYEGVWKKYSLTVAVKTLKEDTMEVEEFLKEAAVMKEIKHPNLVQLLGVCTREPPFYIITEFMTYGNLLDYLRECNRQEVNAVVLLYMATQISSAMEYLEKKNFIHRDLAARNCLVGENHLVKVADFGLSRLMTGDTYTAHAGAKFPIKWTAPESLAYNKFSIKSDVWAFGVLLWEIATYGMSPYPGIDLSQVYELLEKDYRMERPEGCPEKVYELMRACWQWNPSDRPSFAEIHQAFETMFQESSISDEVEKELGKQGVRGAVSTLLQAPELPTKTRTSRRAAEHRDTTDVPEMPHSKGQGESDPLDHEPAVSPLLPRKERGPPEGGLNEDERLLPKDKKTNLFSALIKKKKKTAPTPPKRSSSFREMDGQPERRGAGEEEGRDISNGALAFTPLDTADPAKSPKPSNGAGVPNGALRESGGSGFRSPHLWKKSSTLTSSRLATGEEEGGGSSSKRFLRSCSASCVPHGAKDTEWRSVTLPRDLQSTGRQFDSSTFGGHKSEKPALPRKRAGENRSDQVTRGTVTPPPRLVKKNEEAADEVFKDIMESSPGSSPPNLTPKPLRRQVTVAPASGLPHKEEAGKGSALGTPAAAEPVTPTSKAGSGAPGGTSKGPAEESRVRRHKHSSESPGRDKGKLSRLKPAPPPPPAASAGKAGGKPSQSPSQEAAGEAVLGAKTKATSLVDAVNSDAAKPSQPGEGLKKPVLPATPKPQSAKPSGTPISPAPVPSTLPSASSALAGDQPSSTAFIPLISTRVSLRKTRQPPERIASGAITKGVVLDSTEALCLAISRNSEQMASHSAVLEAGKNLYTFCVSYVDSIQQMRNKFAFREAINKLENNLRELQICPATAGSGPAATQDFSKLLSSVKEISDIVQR
T6 sequence (Q9NYL2 whole entry): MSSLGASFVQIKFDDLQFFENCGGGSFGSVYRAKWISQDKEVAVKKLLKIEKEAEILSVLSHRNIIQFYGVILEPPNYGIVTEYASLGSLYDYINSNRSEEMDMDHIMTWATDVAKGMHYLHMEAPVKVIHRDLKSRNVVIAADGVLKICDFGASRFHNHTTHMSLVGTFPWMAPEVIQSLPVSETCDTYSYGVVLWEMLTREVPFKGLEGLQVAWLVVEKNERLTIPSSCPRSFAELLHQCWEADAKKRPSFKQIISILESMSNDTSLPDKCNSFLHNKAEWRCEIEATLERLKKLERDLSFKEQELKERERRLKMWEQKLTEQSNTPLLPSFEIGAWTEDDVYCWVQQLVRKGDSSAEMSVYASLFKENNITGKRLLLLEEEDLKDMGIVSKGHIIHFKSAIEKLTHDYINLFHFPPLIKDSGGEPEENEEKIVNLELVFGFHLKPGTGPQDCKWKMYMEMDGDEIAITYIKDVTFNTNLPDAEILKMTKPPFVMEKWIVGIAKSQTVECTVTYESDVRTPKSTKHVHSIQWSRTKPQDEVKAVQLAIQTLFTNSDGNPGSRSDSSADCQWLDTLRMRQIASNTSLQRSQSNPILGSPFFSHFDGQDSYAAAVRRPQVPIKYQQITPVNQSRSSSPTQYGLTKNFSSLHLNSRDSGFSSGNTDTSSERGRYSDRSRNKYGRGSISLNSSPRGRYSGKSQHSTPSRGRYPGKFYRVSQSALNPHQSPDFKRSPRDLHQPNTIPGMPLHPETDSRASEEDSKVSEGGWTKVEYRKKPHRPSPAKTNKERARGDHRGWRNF
T3 sequence (P43250 whole entry): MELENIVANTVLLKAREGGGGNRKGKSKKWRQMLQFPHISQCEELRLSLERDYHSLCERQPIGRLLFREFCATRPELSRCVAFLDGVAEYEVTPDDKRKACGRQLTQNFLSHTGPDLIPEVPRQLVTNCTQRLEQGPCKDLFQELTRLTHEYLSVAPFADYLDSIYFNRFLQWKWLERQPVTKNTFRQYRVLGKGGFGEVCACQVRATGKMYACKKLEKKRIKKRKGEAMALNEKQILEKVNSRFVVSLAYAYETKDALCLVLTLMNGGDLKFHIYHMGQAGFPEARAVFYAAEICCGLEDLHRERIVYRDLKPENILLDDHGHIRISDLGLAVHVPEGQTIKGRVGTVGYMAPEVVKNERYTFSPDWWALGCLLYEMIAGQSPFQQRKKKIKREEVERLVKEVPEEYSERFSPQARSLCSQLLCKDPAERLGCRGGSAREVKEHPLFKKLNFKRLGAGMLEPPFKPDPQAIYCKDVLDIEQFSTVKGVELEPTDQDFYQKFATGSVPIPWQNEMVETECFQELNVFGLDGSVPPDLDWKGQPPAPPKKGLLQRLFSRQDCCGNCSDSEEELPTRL
T1 sequence (P36507 whole entry): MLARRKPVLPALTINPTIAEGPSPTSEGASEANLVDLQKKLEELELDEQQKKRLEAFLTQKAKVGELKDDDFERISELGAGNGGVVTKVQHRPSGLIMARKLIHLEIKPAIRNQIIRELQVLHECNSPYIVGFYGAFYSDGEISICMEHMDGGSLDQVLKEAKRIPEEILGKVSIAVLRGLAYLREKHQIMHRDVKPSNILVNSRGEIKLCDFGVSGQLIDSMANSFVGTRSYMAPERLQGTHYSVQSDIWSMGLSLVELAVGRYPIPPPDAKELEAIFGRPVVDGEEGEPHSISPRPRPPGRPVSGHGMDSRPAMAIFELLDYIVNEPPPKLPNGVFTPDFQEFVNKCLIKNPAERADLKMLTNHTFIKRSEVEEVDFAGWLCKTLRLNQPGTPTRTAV
T7 sequence (P51451 whole entry): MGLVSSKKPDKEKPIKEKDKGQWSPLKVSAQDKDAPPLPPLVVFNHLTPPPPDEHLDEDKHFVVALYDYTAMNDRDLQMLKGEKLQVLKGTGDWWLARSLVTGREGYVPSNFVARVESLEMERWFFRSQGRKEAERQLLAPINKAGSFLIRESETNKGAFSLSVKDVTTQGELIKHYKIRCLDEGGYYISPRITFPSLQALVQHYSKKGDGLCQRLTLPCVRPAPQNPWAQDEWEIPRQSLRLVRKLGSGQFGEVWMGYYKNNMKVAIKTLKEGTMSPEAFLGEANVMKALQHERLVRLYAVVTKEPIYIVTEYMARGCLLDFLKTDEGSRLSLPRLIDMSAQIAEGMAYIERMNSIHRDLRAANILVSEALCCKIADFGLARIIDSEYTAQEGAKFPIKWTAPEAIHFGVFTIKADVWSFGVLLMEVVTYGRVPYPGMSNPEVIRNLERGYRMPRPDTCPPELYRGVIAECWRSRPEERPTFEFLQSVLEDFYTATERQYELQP
T5 sequence (Q05513 184-592): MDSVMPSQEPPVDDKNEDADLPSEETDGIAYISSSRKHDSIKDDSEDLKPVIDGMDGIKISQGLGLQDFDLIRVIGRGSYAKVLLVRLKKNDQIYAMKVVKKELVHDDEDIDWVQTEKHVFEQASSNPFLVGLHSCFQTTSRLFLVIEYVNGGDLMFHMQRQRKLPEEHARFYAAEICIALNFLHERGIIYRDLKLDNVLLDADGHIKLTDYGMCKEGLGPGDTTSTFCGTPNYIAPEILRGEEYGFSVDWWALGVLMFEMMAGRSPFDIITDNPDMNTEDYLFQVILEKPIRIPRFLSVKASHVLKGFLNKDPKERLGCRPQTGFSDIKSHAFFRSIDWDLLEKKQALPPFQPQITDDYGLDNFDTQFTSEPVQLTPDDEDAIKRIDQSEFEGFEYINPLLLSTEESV

## CNC(=O)c1ccc2c(c1)C(=O)c1ccc(Nc3ccc(F)c(NC(=O)C4CC4)c3)cc1CC2 [Compound 2015]
340 wild-type kinases [1]; 0.2 µM 2015, read-out: MEK2 residual activity
  remaining activity at 0.2 µM: 103%
340 wild-type kinases [1]; 1 µM 2015, read-out: MEK2 residual activity
  remaining activity at 1 µM: 69.7%
340 wild-type kinases [1]; MEK2, 0.2 µM, read-out: residual activity
  remaining activity at 0.2 µM: 103%
340 wild-type kinases [1]; MEK2, 1 µM, read-out: residual activity
  remaining activity at 1 µM: 69.7%
340 wild-type kinases [2]; 0.2 µM 2015, read-out: STK39 residual activity
  remaining activity at 0.2 µM: 109%
340 wild-type kinases [2]; 1 µM 2015, read-out: STK39 residual activity
  remaining activity at 1 µM: 108%
340 wild-type kinases [2]; STK39, 0.2 µM, read-out: residual activity
  remaining activity at 0.2 µM: 109%
340 wild-type kinases [2]; STK39, 1 µM, read-out: residual activity
  remaining activity at 1 µM: 108%
340 wild-type kinases [3]; 0.2 µM 2015, read-out: GRK6 residual activity
  remaining activity at 0.2 µM: 111%
340 wild-type kinases [3]; 1 µM 2015, read-out: GRK6 residual activity
  remaining activity at 1 µM: 110%
340 wild-type kinases [3]; GRK6, 0.2 µM, read-out: residual activity
  remaining activity at 0.2 µM: 111%
340 wild-type kinases [3]; GRK6, 1 µM, read-out: residual activity
  remaining activity at 1 µM: 110%
340 wild-type kinases [4]; 0.2 µM 2015, read-out: ABL1 residual activity
  remaining activity at 0.2 µM: 108%
340 wild-type kinases [4]; 1 µM 2015, read-out: ABL1 residual activity
  remaining activity at 1 µM: 99.6%
340 wild-type kinases [4]; ABL1, 0.2 µM, read-out: residual activity
  remaining activity at 0.2 µM: 108%
340 wild-type kinases [4]; ABL1, 1 µM, read-out: residual activity
  remaining activity at 1 µM: 99.6%
340 wild-type kinases [5]; 0.2 µM
  remaining activity at 0.2 µM: 106%
340 wild-type kinases [5]; 1 µM
  remaining activity at 1 µM: 102%
340 wild-type kinases [6]; 0.2 µM 2015, read-out: ZAK residual activity
  remaining activity at 0.2 µM: 110%
340 wild-type kinases [6]; 1 µM 2015, read-out: ZAK residual activity
  remaining activity at 1 µM: 104%
340 wild-type kinases [6]; ZAK, 0.2 µM, read-out: residual activity
  remaining activity at 0.2 µM: 110%
340 wild-type kinases [6]; ZAK, 1 µM, read-out: residual activity
  remaining activity at 1 µM: 104%
340 wild-type kinases [7]; 0.2 µM 2015, read-out: BLK residual activity
  remaining activity at 0.2 µM: 107%
340 wild-type kinases [7]; 1 µM 2015, read-out: BLK residual activity
  remaining activity at 1 µM: 104%
340 wild-type kinases [7]; BLK, 0.2 µM, read-out: residual activity
  remaining activity at 0.2 µM: 107%
340 wild-type kinases [7]; BLK, 1 µM, read-out: residual activity
  remaining activity at 1 µM: 104%
340 wild-type kinases [8]; 0.2 µM 2015, read-out: PAK3 residual activity
  remaining activity at 0.2 µM: 97.6%
340 wild-type kinases [8]; 1 µM 2015, read-out: PAK3 residual activity
  remaining activity at 1 µM: 96.3%
340 wild-type kinases [8]; PAK3, 0.2 µM, read-out: residual activity
  remaining activity at 0.2 µM: 97.6%
340 wild-type kinases [8]; PAK3, 1 µM, read-out: residual activity
  remaining activity at 1 µM: 96.3%
340 wild-type kinases [9]; 0.2 µM 2015, read-out: EPHA1 residual activity
  remaining activity at 0.2 µM: 87.2%
340 wild-type kinases [9]; 1 µM 2015, read-out: EPHA1 residual activity
  remaining activity at 1 µM: 82.1%
340 wild-type kinases [9]; EPHA1, 0.2 µM, read-out: residual activity
  remaining activity at 0.2 µM: 87.2%
340 wild-type kinases [9]; EPHA1, 1 µM, read-out: residual activity
  remaining activity at 1 µM: 82.1%
340 wild-type kinases [10]; 0.2 µM 2015, read-out: TTBK2 residual activity
  remaining activity at 0.2 µM: 115%
340 wild-type kinases [10]; 1 µM 2015, read-out: TTBK2 residual activity
  remaining activity at 1 µM: 118%
340 wild-type kinases [10]; TTBK2, 0.2 µM, read-out: residual activity
  remaining activity at 0.2 µM: 115%
340 wild-type kinases [10]; TTBK2, 1 µM, read-out: residual activity
  remaining activity at 1 µM: 118%
340 wild-type kinases [11]; 0.2 µM 2015, read-out: PHKG2 residual activity
  remaining activity at 0.2 µM: 102%
340 wild-type kinases [11]; 1 µM 2015, read-out: PHKG2 residual activity
  remaining activity at 1 µM: 98.8%
340 wild-type kinases [11]; PHKG2, 0.2 µM, read-out: residual activity
  remaining activity at 0.2 µM: 102%
340 wild-type kinases [11]; PHKG2, 1 µM, read-out: residual activity
  remaining activity at 1 µM: 98.8%
